Measured values: ChEMBL document CHEMBL1141145, “A chiral benzoquinolizine-2-carboxylic acid arginine salt active against vancomycin-resistant Staphylococcus aureus” (J Med Chem, 2005)
≈ marks a conversion by molar mass, not a printed value. Each block holds one compound with its values, some of them ahead of it.

Legend:
[1] = tested on: Staphylococcus aureus; assay: Minimum inhibitory concentration against methicillin susceptible Staphylococcus aureus before esterase action in rat serum; assay type: functional
[2] = tested on: Mus musculus; assay: Protection of mice infected with MRSA-32 cell suspension after oral administration of compound; assay type: functional; conditions: Mus musculus, MRSA-32, po; read-out: ED50
[3] = tested on: Staphylococcus aureus; assay: Minimum inhibitory concentration against methicillin susceptible Staphylococcus aureus after esterase action in rat serum; assay type: functional
[4] = physchem; conditions: octanol/water, pH 2
[5] = physchem
[6] = physchem; remark: listed apart in the source
[7] = physchem; conditions: octanol/water, pH 7.4
[8] = tested on: Mus musculus; assay: Efficacy against mice infected with Staphylococcus aureus ATCC 25923 upon s.c. administration; assay type: functional; conditions: sc
[9] = tested on: Mus musculus; assay: Efficacy against mice infected with MRSA-33 upon s.c. administration; assay type: functional; conditions: sc
[10] = tested on: Staphylococcus aureus; assay: Minimum inhibitory concentration against Vancomycin intermediate Staphylococcus aureus MU 50; assay type: functional
[11] = tested on: Staphylococcus aureus; assay: Minimum inhibitory concentration against vancomycin intermediate Staphylococcus aureus MU 3; assay type: functional
[12] = tested on: Mus musculus; assay: Efficacy against mice infected with MRSA-32 upon s.c. administration; assay type: functional; conditions: MRSA-32, sc
[13] = tested on: Staphylococcus aureus; assay: Minimum inhibitory concentration against vancomycin-resistant Staphylococcus aureus (Hershey); assay type: functional
[14] = tested on: Enterococcus faecalis; assay: Minimum inhibitory concentration against Enterococcus faecalis ATCC 29212; assay type: functional
[15] = tested on: Staphylococcus aureus; assay: Minimum inhibitory concentration against Staphylococcus aureus ATCC 25923; assay type: functional
[16] = tested on: Streptococcus agalactiae; assay: Minimum inhibitory concentration against Streptococcus agalactiae ATCC 13813; assay type: functional
[17] = tested on: Staphylococcus aureus; assay: microbe, parasite or virus in culture
[18] = tested on: Streptococcus sanguinis; assay: Minimum inhibitory concentration against Streptococcus sanguis ATCC 10556; assay type: functional
[19] = tested on: Klebsiella pneumoniae; assay: Minimum inhibitory concentration against Klebsiella pneumoniae ATCC 10031; assay type: functional
[20] = tested on: Staphylococcus aureus; assay: microbe, parasite or virus in culture; remark: listed apart in the source
[21] = tested on: Streptococcus pyogenes; assay: Minimum inhibitory concentration against Streptococcus pyogenes ATCC 19615; assay type: functional
[22] = tested on: Staphylococcus haemolyticus; assay: Minimum inhibitory concentration against Staphylococcus haemolyticus ATCC 29970; assay type: functional
[23] = tested on: Staphylococcus saprophyticus; assay: Minimum inhibitory concentration against Staphylococcus saprophyticus ATCC 15305; assay type: functional
[24] = tested on: Staphylococcus aureus; assay: microbe, parasite or virus in culture; remark: listed apart in the source
[25] = tested on: Phocaeicola vulgatus; assay: Minimum inhibitory concentration against Bacteroides vulgatus ATCC 29327; assay type: functional
[26] = target: DNA gyrase (Staphylococcus aureus) (UniProt P0A0K8+P20831)
[27] = tested on: Pseudomonas aeruginosa; assay: microbe, parasite or virus in culture; conditions: ATCC 27853
[28] = tested on: Staphylococcus aureus; assay: Minimum inhibitory concentration against Staphylococcus aureus grlA mutant; assay type: functional
[29] = target: DNA topoisomerase 4 subunit A (Staphylococcus aureus) (UniProt P0C1U9)
[30] = tested on: Escherichia coli; assay: microbe, parasite or virus in culture; conditions: ATCC 25922

MIC [1]: 0.1 µg/mL (≈ 0.186 µM)
MIC [3]: 0.1 µg/mL (≈ 0.186 µM)
Compound: CO[C@@H]1C(OC2CCN(c3c(F)cc4c(=O)c(C(=O)O)cn5c4c3CC[C@@H]5C)CC2)O[C@@H](CO)[C@@H](O)[C@@H]1O (single isomer, unassigned)
ED50 [2]: > 100 mg/kg

logD [4]: -0.86
pKa [5]: 6.43
pKa [6]: 9.38
logD [7]: -0.02
Compound: C[C@@H]1CN(c2c(F)c(N)c3c(=O)c(C(=O)O)cn(C4CC4)c3c2F)C[C@H](C)N1 [SPARFLOXACIN]

Compound: CN[C@H](CC(C)C)C(=O)N[C@H]1C(=O)N[C@@H](CC(N)=O)C(=O)N[C@H]2C(=O)N[C@H]3C(=O)N[C@H](C(=O)N[C@H](C(=O)O)c4cc(O)cc(O)c4-c4cc3ccc4O)[C@H](O)c3ccc(c(Cl)c3)Oc3cc2cc(c3O[C@@H]2O[C@H](CO)[C@@H](O)[C@H](O)[C@H]2O[C@H]2C[C@](C)(N)[C@H](O)[C@H](C)O2)Oc2ccc(cc2Cl)[C@H]1O [VANCOMYCIN]
ED50 [8]: 6.11 mg/kg
ED50 [9]: > 3.7 mg/kg
MIC [10]: 16 µg/mL (≈ 11 µM)
MIC [11]: 8 µg/mL (≈ 5.52 µM)
ED50 [12]: > 2.18 mg/kg
MIC [13]: 32 µg/mL (≈ 22.1 µM)

MIC [1]: 2 µg/mL (≈ 4.37 µM)
MIC [3]: 1 µg/mL (≈ 2.19 µM)
Compound: C[C@H]1CCc2c(N3CCC(O)CC3)c(F)cc3c(=O)c(C(=O)OC4CCN(C)CC4)cn1c23
ED50 [2]: > 100 mg/kg

MIC [1]: > 16 µg/mL
MIC [3]: > 16 µg/mL
Compound: C[C@H]1CCc2c(N3CCC(OC(=O)C(C)(C)C)CC3)c(F)cc3c(=O)c(C(=O)OCOC(=O)C(C)(C)C)cn1c23
ED50 [2]: > 150 mg/kg

MIC [1]: 1 µg/mL (≈ 1.94 µM)
MIC [3]: 0.1 µg/mL (≈ 0.194 µM)
Compound: C[C@H]1CCc2c(N3CCC(OC(=O)[C@H](N)CCCN=C(N)N)CC3)c(F)cc3c(=O)c(C(=O)O)cn1c23
ED50 [2]: > 100 mg/kg

logD [4]: -1.46
pKa [5]: 6.54
logD [7]: -1
Compound: CCn1cc(C(=O)O)c(=O)c2cc(F)c(N3CCNCC3)cc21 [NORFLOXACIN]

Compound: C[C@H]1COc2c(N3CCN(C)CC3)c(F)cc3c(=O)c(C(=O)O)cn1c23.C[C@H]1COc2c(N3CCN(C)CC3)c(F)cc3c(=O)c(C(=O)O)cn1c23.O [LEVOFLOXACIN]
MIC [14]: 1 µg/mL
MIC [15]: 1 µg/mL
MIC [16]: 1 µg/mL
MIC [17]: 16 µg/mL
MIC [18]: 2 µg/mL
MIC [19]: 0.008 µg/mL
MIC [20]: 16 µg/mL
MIC [21]: 1 µg/mL
MIC [22]: 0.12 µg/mL
MIC [23]: 0.5 µg/mL
ED50 [8]: 5.92 mg/kg
ED50 [9]: > 100 mg/kg
MIC [24]: 8 µg/mL
MIC [10]: 8 µg/mL
MIC [11]: 16 µg/mL
MIC [25]: 1 µg/mL
ED50 [12]: > 100 mg/kg
MIC [13]: 32 µg/mL

Compound: CC(=O)NC[C@H]1CN(c2ccc(N3CCOCC3)c(F)c2)C(=O)O1 [LINEZOLID]
ED50 [8]: 2.4 mg/kg
ED50 [9]: 3.1 mg/kg
ED50 [12]: 1.14 mg/kg

MIC [1]: 8 µg/mL (≈ 17.9 µM)
MIC [3]: 2 µg/mL (≈ 4.48 µM)
Compound: CCOC(=O)COC(=O)c1cn2c3c(c(N4CCC(O)CC4)c(F)cc3c1=O)CC[C@@H]2C
ED50 [2]: > 150 mg/kg

MIC [1]: 0.5 µg/mL (≈ 1.06 µM)
MIC [3]: 0.12 µg/mL (≈ 0.254 µM)
Compound: C[C@H]1CCc2c(N3CCC(O)CC3)c(F)cc3c(=O)c(C(=O)OCCN4CCNCC4)cn1c23
ED50 [2]: > 100 mg/kg

Compound: C[C@H]1CCc2c(N3CCC(OC(=O)[C@H](CCC/N=C(\N)N[N+](=O)[O-])NC(=O)[C@@H](N)CCC/N=C(\N)N[N+](=O)[O-])CC3)c(F)cc3c(=O)c(C(=O)O)cn1c23.O=C(O)C(F)(F)F
MIC [1]: 0.5 µg/mL
ED50 [2]: > 75 mg/kg
MIC [3]: 0.12 µg/mL

MIC [1]: 1 µg/mL (≈ 2.19 µM)
MIC [3]: 0.06 µg/mL (≈ 0.131 µM)
Compound: C[C@H]1CCc2c(N3CCC(O)CC3)c(F)cc3c(=O)c(C(=O)OCCN4CCCC4)cn1c23
ED50 [2]: > 150 mg/kg

Compound: O=C(O)c1cn(C2CC2)c2cc(N3CCNCC3)c(F)cc2c1=O [CIPROFLOXACIN]
MIC [14]: 2 µg/mL (≈ 6.04 µM)
MIC [15]: 1 µg/mL (≈ 3.02 µM)
MIC [16]: 2 µg/mL (≈ 6.04 µM)
MIC [18]: 2 µg/mL (≈ 6.04 µM)
MIC [19]: < 0.008 µg/mL
MIC [21]: 0.5 µg/mL (≈ 1.51 µM)
CC50 [26]: 50 µg/mL (≈ 151 µM)
MIC [22]: 0.25 µg/mL (≈ 0.754 µM)
MIC [23]: 0.5 µg/mL (≈ 1.51 µM)
MIC [27]: 1 µg/mL (≈ 3.02 µM)
MIC [25]: 8 µg/mL (≈ 24.1 µM)
MIC [28]: 1 µg/mL (≈ 3.02 µM)
CC50 [29]: 2.5 µg/mL (≈ 7.54 µM)
MIC [30]: < 0.008 µg/mL

pKa [5]: 6.15
pKa [6]: 9.97
Compound: CCn1cc(C(=O)O)c(=O)c2cc(F)c(N3CCN(C)CC3)cc21 [PEFLOXACIN]
